We go through five compounds from US8030498B2, “Benzoylpyrazole compounds and herbicides containing them” (Ishihara Sangyo Kaisha, Ltd., priority 2005, dated 2011).

The subject of assay [1] is barnyardgrass (Echinochloa crus-galli L.). Description: Test Example 1: foliar treatment, growth inhibition rate, barnyardgrass. It counts as in vivo. As to conditions: visually observed 17th to 23rd day after application. The text has this: (§1) Upland field soil was put into a 1/170,000 hectare pot, and seeds of various plants were sown. When the respective plants reached predetermined leaf stage ((1) barnyardgrass (Echinochloa crus-galli L.); 0.8 to 2.5 leaf stage, (2) crabgrass (Digitaria sanguinalis L.): 0.5 to 3.0 leaf stage, (3) greenfoxtail (Setaria viridis L.): 1.0 to 3.0 leaf stage, (4) redroot pigweed (Amaranthus retroflexus L.): cotyledon stage to 2.0 leaf stage, (5) prickly sida (Sida spinosa L.): cotyledon stage to 1.1 leaf stage, (6) velvetleaf (Abutilon theophrasti MEDIC.): cotyledon stage to 1.5 leaf stage, (7) rice (Oryza sativa L.): 1.0 to 2.5 leaf stage, (8) wheat (Triticum spp.): 1.7 to 3.4 leaf stage, (9) corn (Zea mays L.): 2.0 to 3.5 leaf stage, and (10) soybean (Glycine max Merr.): primary leaf stage to 0.3 leaf stage), wettable powders or emulsifiable concentrates of the compounds of the present invention prepared in accordance with a conventional preparation method, were weighed so that the active ingredients became the prescribed amounts, and diluted with water in an amount corresponding to 500 liter per 1 hectare. 0.1 vol % of an agricultural spreader was further added to the respective diluted liquids, followed by foliar treatment with a small sprayer.
(§2) On the 17th to 23rd day after application, the state of growth of the respective plants was visually observed, and the herbicidal effect was evaluated in accordance with a growth inhibition rate (%) of 0 (equivalent to the non-treated area) to 100% (complete kill).

Assay [2] relates to crabgrass (Digitaria sanguinalis L.). The assay can be described thus: Test Example 1: foliar treatment, growth inhibition rate, crabgrass. It counts as in vivo. To be noted: visually observed 17th to 23rd day after application.
Text: as §1, §2

The subject of assay [3] is greenfoxtail (Setaria viridis L.). Description: Test Example 1: foliar treatment, growth inhibition rate, greenfoxtail. As to conditions: visually observed 17th to 23rd day after application. It counts as in vivo.
Text: as §1, §2

The test system of assay [4] is redroot pigweed (Amaranthus retroflexus L.). Description: Test Example 1: foliar treatment, growth inhibition rate, redroot pigweed. As to conditions: visually observed 17th to 23rd day after application. It counts as in vivo.
Text: as §1, §2

The test system of assay [5] is prickly sida (Sida spinosa L.). The assay can be described thus: Test Example 1: foliar treatment, growth inhibition rate, prickly sida. To be noted: visually observed 17th to 23rd day after application. Type of assay: in vivo.
Text: as §1, §2

Assay [6] relates to velvetleaf (Abutilon theophrasti MEDIC.). Description: Test Example 1: foliar treatment, growth inhibition rate, velvetleaf. It counts as in vivo. As to conditions: visually observed 17th to 23rd day after application.
Text: as §1, §2

The test system of the next assay is rice (Oryza sativa L.). Description: Test Example 1: foliar treatment, growth inhibition rate, rice. As to conditions: visually observed 17th to 23rd day after application. Type of assay: in vivo.
Text: as §1, §2

The next assay deals with wheat (Triticum spp.). Description: Test Example 1: foliar treatment, growth inhibition rate, wheat. Type of assay: in vivo. As to conditions: visually observed 17th to 23rd day after application.
Text: as §1, §2

The next assay deals with corn (Zea mays L.). Description: Test Example 1: foliar treatment, growth inhibition rate, corn. As to conditions: visually observed 17th to 23rd day after application. It counts as in vivo.
Text: as §1, §2

For assay [7], the system named is soybean (Glycine max Merr.). The assay can be described thus: Test Example 1: foliar treatment, growth inhibition rate, soybean. It counts as in vivo. As to conditions: visually observed 17th to 23rd day after application.
Text: as §1, §2

Another assay relates to crabgrass. Description: Test Example 2: soil application on the day after sowing, growth inhibition rate, crabgrass. Type of assay: in vivo, Digitaria sanguinalis L. As to conditions: 250 g/ha active ingredient, observed on 19th to 24th day. The text has this: (§3) Upland field soil was put into a 1/170,000 hectare pot, and seeds of various plants (barnyardgrass, crabgrass, greenfoxtail, redroot pigweed, prickly sida, velvetleaf, rice, wheat, corn and soybean) were sown. On the day after sowing, wettable powders or emulsifiable concentrates of the compounds of the present invention prepared in accordance with a conventional preparation method, were weighed so that the active ingredients became the prescribed amounts, and diluted with water in an amount corresponding to 500 liter per 1 hectare, followed by soil application with a small sprayer. On the 19th to 24th day after the application, the state of growth of the respective plants was visually observed, and the herbicidal effect was evaluated in accordance with a growth inhibition rate (%) of from 0 (equivalent to the non-treated area) to 100% (complete kill).

In the next assay the test system is redroot pigweed. The assay can be described thus: Test Example 2: soil application on the day after sowing, growth inhibition rate, redroot pigweed. As to conditions: 250 g/ha active ingredient, observed on 19th to 24th day. It counts as in vivo, Amaranthus retroflexus L.
Text: as §3

The next assay deals with velvetleaf. The assay can be described thus: Test Example 2: soil application on the day after sowing, growth inhibition rate, velvetleaf. To be noted: 250 g/ha active ingredient, observed on 19th to 24th day. It counts as in vivo, Abutilon theophrasti MEDIC.
Text: as §3

In the next assay the test system is corn. The assay can be described thus: Test Example 2: soil application on the day after sowing, growth inhibition rate, corn. As to conditions: 250 g/ha active ingredient, observed on 19th to 24th day. It counts as in vivo, Zea mays L.
Text: as §3

Take `CCOCCOc1c(S(C)(=O)=O)ccc(C(=O)c2cnn(C)c2OC(=O)SCC)c1C` [compound 77]: the “Growth inhibition rate (%) Barnyardgrass” value in [1] (31 g/ha active ingredient) is 98%. In addition, the “Growth inhibition rate (%) Crabgrass” value in assay [2] (31 g/ha active ingredient) was found to be 98%; with crabgrass, 95%. In addition, the “Growth inhibition rate (%) Greenfoxtail” value in assay [3] (31 g/ha active ingredient) was found to be 98%. Besides, the “Growth inhibition rate (%) redroot pigweed” value in assay [4] (31 g/ha active ingredient) is given as 95%; in the assay with redroot pigweed it was 90%. For the same compound, the “Growth inhibition rate (%) Prickly sida” value in assay [5] (31 g/ha active ingredient) came to 70%. Further, the “Growth inhibition rate (%) Velvetleaf” value is recorded as 80% in assay [6] (31 g/ha active ingredient) and 40% in the assay with velvetleaf. In the assay on rice (Oryza sativa L.) (31 g/ha active ingredient), the “Growth inhibition rate (%) Rice” value was found to be 70%. Besides, the “Growth inhibition rate (%) Wheat” value in the assay on wheat (Triticum spp.) (31 g/ha active ingredient) was found to be 0%. Besides, the “Growth inhibition rate (%) Corn” value worked out at 10% in the assay with corn (Zea mays L.) (31 g/ha active ingredient) and 0% in the assay with corn. The “Growth inhibition rate (%) Soybean” value in [7] (31 g/ha active ingredient) was 95%.
Regarding `CCSC(=O)Oc1c(C(=O)c2ccc(S(C)(=O)=O)c(COCCOC)c2C)cnn1C` [compound 76], the “Growth inhibition rate (%) Barnyardgrass” value in [1] (31 g/ha active ingredient) came out at 98%. The “Growth inhibition rate (%) Crabgrass” value is 98% in assay [2] (31 g/ha active ingredient) and 100% with crabgrass. Further, the “Growth inhibition rate (%) Greenfoxtail” value in [3] (31 g/ha active ingredient) was 80%. In addition, the “Growth inhibition rate (%) redroot pigweed” value (in [4] (31 g/ha active ingredient); in the assay with redroot pigweed) was 90% in each case. The “Growth inhibition rate (%) Prickly sida” value in assay [5] (31 g/ha active ingredient) came to 65%. Moreover, the entries for the “Growth inhibition rate (%) Velvetleaf” value (in assay [6] (31 g/ha active ingredient); with velvetleaf) were 75% and 30%, respectively. In addition, the “Growth inhibition rate (%) Rice” value with rice (Oryza sativa L.) (31 g/ha active ingredient) is on record as 60%. Besides, the “Growth inhibition rate (%) Wheat” value in the assay on wheat (Triticum spp.) (31 g/ha active ingredient) is 0%. The “Growth inhibition rate (%) Corn” value in the assay on corn (Zea mays L.) (31 g/ha active ingredient) is 30%; with corn it was 0%. Also, the “Growth inhibition rate (%) Soybean” value in assay [7] (31 g/ha active ingredient) is recorded as 95%.
For the compound `CCOCc1c(S(C)(=O)=O)ccc(C(=O)c2cnn(C)c2OC(=O)SCC)c1C` [compound 73], in assay [1] (31 g/ha active ingredient), the “Growth inhibition rate (%) Barnyardgrass” value is on record as 100%. In addition, the “Growth inhibition rate (%) Crabgrass” value (in assay [2] (31 g/ha active ingredient); in the assay with crabgrass) was 100% throughout. Besides, the “Growth inhibition rate (%) Greenfoxtail” value in assay [3] (31 g/ha active ingredient) was found to be 100%. Also, the “Growth inhibition rate (%) redroot pigweed” value (in [4] (31 g/ha active ingredient); in the assay with redroot pigweed) was 100% throughout. The “Growth inhibition rate (%) Prickly sida” value in [5] (31 g/ha active ingredient) is recorded as 70%. Besides, the “Growth inhibition rate (%) Velvetleaf” value in assay [6] (31 g/ha active ingredient) is 98%; in the assay with velvetleaf it was 100%. Also, the “Growth inhibition rate (%) Rice” value with rice (Oryza sativa L.) (31 g/ha active ingredient) is recorded as 95%. In addition, the “Growth inhibition rate (%) Wheat” value in the assay on wheat (Triticum spp.) (31 g/ha active ingredient) stood at 0%. The “Growth inhibition rate (%) Corn” value is listed as 30% in the assay on corn (Zea mays L.) (31 g/ha active ingredient) and 0% in the assay with corn. The “Growth inhibition rate (%) Soybean” value in assay [7] (31 g/ha active ingredient) is 98%.
With `CCSC(=O)Oc1c(C(=O)c2ccc(S(C)(=O)=O)c(OCCCl)c2C)cnn1C` [compound 78], the “Growth inhibition rate (%) Barnyardgrass” value in assay [1] (31 g/ha active ingredient) is given as 60%. The entries for the “Growth inhibition rate (%) Crabgrass” value (in assay [2] (31 g/ha active ingredient); in the assay on crabgrass) were 70% and 95%, respectively. Further, the “Growth inhibition rate (%) Greenfoxtail” value in assay [3] (31 g/ha active ingredient) is 60%. In addition, the figures for the “Growth inhibition rate (%) redroot pigweed” value (in assay [4] (31 g/ha active ingredient); in the assay on redroot pigweed) were 60% and 80%, respectively. In addition, the “Growth inhibition rate (%) Prickly sida” value in [5] (31 g/ha active ingredient) worked out at 60%. Besides, the “Growth inhibition rate (%) Velvetleaf” value worked out at 65% in assay [6] (31 g/ha active ingredient) and 50% in the assay with velvetleaf. In addition, in the assay on rice (Oryza sativa L.) (31 g/ha active ingredient), the “Growth inhibition rate (%) Rice” value turned out to be 10%. The “Growth inhibition rate (%) Wheat” value with wheat (Triticum spp.) (31 g/ha active ingredient) was 0%. Moreover, the “Growth inhibition rate (%) Corn” value with corn (Zea mays L.) (31 g/ha active ingredient) and with corn was 0% in each case. Moreover, the “Growth inhibition rate (%) Soybean” value in assay [7] (31 g/ha active ingredient) is 70%.
For the compound `CCSC(=O)Oc1c(C(=O)c2ccc(S(C)(=O)=O)c(CN(CC#N)C(=O)SCC)c2C)cnn1C` [compound 228], the “Growth inhibition rate (%) Barnyardgrass” value in [1] (63 g/ha active ingredient) worked out at 98%. Also, in assay [2] (63 g/ha active ingredient), the “Growth inhibition rate (%) Crabgrass” value came out at 60%. The “Growth inhibition rate (%) Greenfoxtail” value in assay [3] (63 g/ha active ingredient) is reported as 40%. In addition, in [4] (63 g/ha active ingredient), the “Growth inhibition rate (%) redroot pigweed” value was 40%. Also, in assay [5] (63 g/ha active ingredient), the “Growth inhibition rate (%) Prickly sida” value was determined as 40%. Also, the “Growth inhibition rate (%) Velvetleaf” value in [6] (63 g/ha active ingredient) is reported as 70%. For the same compound, the “Growth inhibition rate (%) Rice” value in the assay on rice (Oryza sativa L.) (63 g/ha active ingredient) turned out to be 0%. Besides, in the assay on wheat (Triticum spp.) (63 g/ha active ingredient), the “Growth inhibition rate (%) Wheat” value is reported as 0%. The “Growth inhibition rate (%) Corn” value in the assay on corn (Zea mays L.) (63 g/ha active ingredient) stood at 0%. For the same compound, in assay [7] (63 g/ha active ingredient), the “Growth inhibition rate (%) Soybean” value is listed as 80%.
